Columns and labels:
HCT-116 (colon cancer) = assay: Proliferation of HCT-116 cells (trypan blue count); assay type: cell-based, human; details: 30 μM, 72 hours
Description: A2780 and SKOV-3 cells were treated with 50 μM of 33 for 72 h before RNA and protein extraction and expression analyses. A2780 and A2780 CIS were treated with 33 (30 μM) and/or cisplatin (1 μM, Sigma-Aldrich) for 48 hours while MCF-7, A549 and HCT-116 were treated with 33 (30 μM) for 72 hours. Total cell number and viability have been assessed using Trypan Blue Solution (Thermo Fisher Scientific) and Countess™ 3 Automated Cell Counter (Thermo Fisher Scientific).

WT SK-Hep-1 cells = assay: Antiproliferative effect on WT SK-Hep-1 cells (CCK-8); assay type: cell-based, human; details: 48 hours
Description: HCCLM3 and SK-Hep-1 cells were seeded into 96-well plates at a density of 10 000 cells per well and allowed to adhere overnight. Subsequently, the cells were treated with the following substances: 0.1% DMSO as the negative control, various concentrations of the test compounds, and 125 μM enoxacin as the positive control. After 48 h of incubation, the original culture medium was removed, and the cells were washed twice with PBS. Then, 100 μL of DMEM culture medium containing 10% CCK-8 (Bimake, USA) was added to each well. The plates were incubated for 30 minutes at 37 °C. To determine the […], measurements were taken at a wavelength of 450 nm using a Varioskan from Thermo Fisher Scientific.

## O=C(O)c1cn(C2CC2)c2cc(N3CCc4ccccc4C3)c(F)cc2c1=O [Compound 33, 1-Cyclopropyl-7-(3,4-dihydroisoquinolin-2(1H)-yl)-6-fluoro-4-oxo-1,4-dihydroquinoline-3-carboxylic acid]
HCT-116 (colon cancer)
  effect on HCT-116 cell proliferation: significant inhibitory effect on cell proliferation
WT SK-Hep-1 cells; 30 μM
  antiproliferative effect on WT TRBP SK-Hep-1 cells: less evident
WT SK-Hep-1 cells; 50 μM
  viability of WT SK-Hep-1 cells: significantly reduced the viability

Reference: paper PMC11467779, “New anti-ovarian cancer quinolone derivatives acting by modulating microRNA processing machinery” (RSC Medicinal Chemistry, 2024)
